Converted amounts (≈) assume the structure as drawn.
Key:
ECV304 = assay: three day MTT cytotoxicity assay, ECV304; assay type: cell-based, human; settings: 72 hours incubation, ECV304 endothelial cells
Description: (§1) A number of the anthracene based compounds were tested for cytotoxicity against 12 human tumor cell lines. Briefly, a three day MTT cytotoxicity assay was performed, which is based on the principle of uptake of MTT (3-(4,5-dimethylthiazol-2-yl)-2,5-diphenyl tetrazolium bromide), a tetrazolium salt, by the metabolically active cells where it is metabolized by active mitochondria into a blue colored formazan product that is read spectrophotometrically. MTT was dissolved in phosphate buffered saline with a pH of 7.4 to obtain an MTT concentration of 5 mg/ml; the resulting mixture was filtered through a 0.22 micron filter to sterilize and remove a small amount of insoluble residue. For each type of tumor cell, 10,000 to 15,000 cells were seeded in a 96-well culture plate and incubated with the individual anthracene based compounds in a CO2 incubator for a total of 72 hours. Control cells not treated with the anthracene based compounds were similarly incubated. The assay was terminated by adding 100 ug (20 ul) of MTT to each well, then incubating for additional one hour, and finally adding 50 ul of 10% SDS-0.01N HCl to each well to lyse the cells and dissolve formazan. After incubating for one hour, the plate was read spectrophotometrically at 540 nm and the percentage of cytotoxicity calculated using the following formula:
(§2) Cytotoxicity percentage=100×[1−(X/R1)],
(§3) where X=(absorbance of treated sample at 540 nm)−(absorbance of blank at 540 nm)
(§4) R1=absorbance of control sample at 540 nm.
(§5) The IC50 Values of the cytotoxicity defined as the concentration at which 50% of the cells are killed in vitro was calculated for each cell line treated with each of the anthracene based compounds.

KB = assay: three day MTT cytotoxicity assay, KB; assay type: cell-based, human; settings: 72 hours incubation, KB oral cells
Description: as §1, §2, §3, §4, §5

DU145 = assay: three day MTT cytotoxicity assay, DU145; assay type: cell-based, human; settings: 72 hours incubation, DU145 prostate cells
Description: as §1, §2, §3, §4, §5

L132 = assay: three day MTT cytotoxicity assay, L132; assay type: cell-based, human; settings: 72 hours incubation, L132 lung cells
Description: as §1, §2, §3, §4, §5

MiaPaca2 = assay: three day MTT cytotoxicity assay, MiaPaca2; assay type: cell-based, human; settings: 72 hours incubation, MiaPaca2 pancreatic cells
Description: as §1, §2, §3, §4, §5

MCF7 = assay: three day MTT cytotoxicity assay, MCF7; assay type: cell-based, human; settings: 72 hours incubation, MCF7 breast cells
Description: as §1, §2, §3, §4, §5

U87MG = assay: three day MTT cytotoxicity assay, U87MG; assay type: cell-based, human; settings: 72 hours incubation, U87MG glioblastoma cells
Description: as §1, §2, §3, §4, §5

PA1 = assay: three day MTT cytotoxicity assay, PA1; assay type: cell-based, human; settings: 72 hours incubation, PA1 ovarian cells
Description: as §1, §2, §3, §4, §5

PTC = assay: three day MTT cytotoxicity assay, PTC; assay type: cell-based, human; settings: 72 hours incubation, PTC colon cells
Description: as §1, §2, §3, §4, §5

HT29 = assay: three day MTT cytotoxicity assay, HT29; assay type: cell-based, human; settings: 72 hours incubation, HT29 colon cells
Description: as §1, §2, §3, §4, §5

MOLT4 = assay: three day MTT cytotoxicity assay, MOLT4; assay type: cell-based, human; settings: 72 hours incubation, MOLT4 leukemia cells
Description: as §1, §2, §3, §4, §5

Hep2 = assay: three day MTT cytotoxicity assay, Hep2; assay type: cell-based, human; settings: 72 hours incubation, Hep2 larynx cells
Description: as §1, §2, §3, §4, §5

| melting point [°C] | SMILES | ED50 ECV304 Endothelial (ECV304) [µg/mL] | ED50 KB Oral (KB) [µg/mL] | ED50 DU145 Prostate (DU145) [µg/mL] | ED50 L132 Lung (L132) [µg/mL] | ED50 MiaPaca2 Pancreatic (MiaPaca2) [µg/mL] | ED50 MCF7 Breast (MCF7) [µg/mL] | ED50 U87MG Glioblastoma (U87MG) [µg/mL] | ED50 PA1 Ovarian (PA1) [µg/mL] | ED50 PTC Colon (PTC) [µg/mL] | ED50 HT29 Colon (HT29) [µg/mL] | ED50 MOLT4 Leukemia (MOLT4) [µg/mL] | ED50 Hep2 Larynx (Hep2) [µg/mL] |
| --- | --- | --- | --- | --- | --- | --- | --- | --- | --- | --- | --- | --- | --- |
| – | COc1ccc(OC)c2c1CC1C(OC(=O)C(O)C(N)c3ccccc3)C(C)=CCC1C2(C)C (stereo not shown) [Compound 7, 3-Amino-2-hydroxy-3-phenyl-propionic acid 5,8-dimethoxy-2,10,10-trimethyl-1,4,4a,9,9a,10-hexahydro-anthracen-1-yl ester] | 6.0 (≈ 12.9 µM) | 29 (≈ 62.3 µM) | 33 (≈ 70.9 µM) | 24 (≈ 51.5 µM) | 35 (≈ 75.2 µM) | 35 (≈ 75.2 µM) | 24 (≈ 51.5 µM) | 5.0 (≈ 10.7 µM) | 5.0 (≈ 10.7 µM) | 8.0 (≈ 17.2 µM) | 5.0 (≈ 10.7 µM) | 5.0 (≈ 10.7 µM) |
| – | COc1ccc(OC)c2c1C[C@]1(C)C(OC(=O)[C@H](O)[C@@H](N)c3ccccc3)C(C)=CC[C@H]1C2(C)C (stereo partly shown) [Compound 11, 3-Amino-2-hydroxy-3-phenyl-propionic acid 5,8-dimethoxy-2,9a,10,10-tetramethyl-1,4,4a,9,9a,10-hexahydro-anthrcen-1-yl ester] | 2 (≈ 4.17 µM) | 18 (≈ 37.5 µM) | 10 (≈ 20.8 µM) | 21 (≈ 43.8 µM) | 7 (≈ 14.6 µM) | 8 (≈ 16.7 µM) | 10 (≈ 20.8 µM) | 4 (≈ 8.34 µM) | – | 27 (≈ 56.3 µM) | <1 | 16 (≈ 33.4 µM) |
| – | CC1=CCC2C(C)(C)C3=C(CC2(C)C1=O)C(=O)C=CC3=O (stereo not shown) [Compound 19, 6,9,9,10a-Tetramethyl-8a,9,10,10a-tetrahydro-8H-anthracene-1,4,5-trione] | 6 (≈ 21.1 µM) | 62 (≈ 218 µM) | 15 (≈ 52.8 µM) | 6 (≈ 21.1 µM) | 80 (≈ 281 µM) | 18 (≈ 63.3 µM) | 16 (≈ 56.3 µM) | 15 (≈ 52.8 µM) | 40 (≈ 141 µM) | 33 (≈ 116 µM) | 4 (≈ 14.1 µM) | 26 (≈ 91.4 µM) |
| 125 to 140 | CC1=CCC2C(CC3=C(C(=O)C=CC3=O)C2(C)C)C1=O (stereo not shown) [Compound 20, 6,9,9-Trimethyl-8a,9, 10,10a-tetrahydro-8H-anthracene-1,4,5-trione] | – | – | – | – | – | – | – | – | – | – | – | – |
| 90 to 92 | CC1=CCC2C(C)(C)C3=C(CC2(C)C1OC(=O)C1OC(C)(C)N(C(=O)OC(C)(C)C)C1c1ccccc1)C(=O)C=CC3=O (stereo not shown) [Compound 23, 2,2-Dimethyl-4-phenyl-oxazolidine-3,5-dicarboxylic acid 3-tert-butyl ester 5-(2,9a,10,10-tetramethyl-5,8-dioxo-1,4,4a,5,8,9,9a,10-octahydro-anthracen-1-yl) ester] | – | – | – | – | – | – | – | – | – | – | – | – |
| – | CC1=CCC2C(C)(C)C3=C(CC2(C)C1OC(=O)C(O)C(N)c1ccccc1)C(=O)C=CC3=O (stereo not shown) [Compound 24, 3-Amino-2-hydroxy-3-phenyl-propionic acid 2,9a,10,10-tetramethyl-5,8-dioxo-1,4,4a,5,8,9,9a,10-octahydro-anthracen-1-yl ester] | 3 (≈ 6.67 µM) | 6.6 (≈ 14.7 µM) | 5 (≈ 11.1 µM) | >100 | >100 | >100 | 5 (≈ 11.1 µM) | 8 (≈ 17.8 µM) | – | 6 (≈ 13.3 µM) | 7 (≈ 15.6 µM) | 14 (≈ 31.1 µM) |
| – | CC1=CCC2C(CC3=C(C(=O)C=CC3=O)C2(C)C)C1OC(=O)C1OC(C)(C)N(C(=O)OC(C)(C)C)C1c1ccccc1 (stereo not shown) [Compound 25, 2,2-Dimethyl-4-phenyl-oxazolidine-3,5-dicarboxylic acid 3-tert-butyl ester 5-(2,10,10-trimethyl-5,8-dioxo-1,4,4a,5,8,9,9a,10-octahydro-anthracen-1-yl) ester] | 5 (≈ 8.69 µM) | 35 (≈ 60.8 µM) | 32 (≈ 55.6 µM) | 4 (≈ 6.95 µM) | 35 (≈ 60.8 µM) | 16 (≈ 27.8 µM) | 24 (≈ 41.7 µM) | 8 (≈ 13.9 µM) | 8 (≈ 13.9 µM) | 35 (≈ 60.8 µM) | <1 | 11 (≈ 19.1 µM) |
| – | CC1=CCC2C(CC3=C(C(=O)C=CC3=O)C2(C)C)C1OC(=O)C(O)C(N)c1ccccc1 (stereo not shown) [Compound 26, 3-Amino-2-hydroxy-3-phenyl-propionic acid 2,10,10-trimethyl-5,8-dioxo-1,4,4a,5,8,9,9a,10-octahydro-anthracen-1-yl ester] | 29 (≈ 66.6 µM) | 31 (≈ 71.2 µM) | 26 (≈ 59.7 µM) | 10 (≈ 23 µM) | 35 (≈ 80.4 µM) | 32 (≈ 73.5 µM) | 24 (≈ 55.1 µM) | 19 (≈ 43.6 µM) | 5.0 (≈ 11.5 µM) | 6.5 (≈ 14.9 µM) | 5.0 (≈ 11.5 µM) | 20 (≈ 45.9 µM) |
| 137 to 140 | CC1=CCC2C(C)(C)C3=C(CC2(C)C1OC(=O)c1cc(Cl)nc(Cl)n1)C(=O)C=CC3=O (stereo not shown) [Compound 27, 2,6-Dichloro-pyrimidine-4-carboxylicacid-2,9a,10,10-tetramethyl-5,8-dioxo-1,4,4a,5,8,9,9a,10-octahydro-anthracen-1-yl ester] | – | – | – | – | – | – | – | – | – | – | – | – |
| – | COc1ccc(OC)c2c1Cc1c(ccc(C)c1OC(=O)[C@H](O)[C@@H](N)c1ccccc1)C2(C)C [Compound 29, 3-Amino-2-hydroxy-3-phenyl-propionic acid 5,8-dimethoxy-2,10,10,-trimethyl-9,10-dihydro-anthracen-1-yl ester] | 9.0 (≈ 19.5 µM) | 30 (≈ 65 µM) | 34 (≈ 73.7 µM) | 5.0 (≈ 10.8 µM) | 35 (≈ 75.8 µM) | 29 (≈ 62.8 µM) | 8.0 (≈ 17.3 µM) | 5.0 (≈ 10.8 µM) | 5.0 (≈ 10.8 µM) | 6.5 (≈ 14.1 µM) | 5.0 (≈ 10.8 µM) | 5.0 (≈ 10.8 µM) |
